Consider 2 compounds from patent US10561638B2, “Methods for treating dependence” (Biotie Therapies, Inc., priority 2007, dated 2020).

In this experiment the test system is tissue noradrenaline and dopamine content. As to the kind of experiment: Tissue catecholamines in SHRs after three oral doses 12 h apart. The experiment is classed as in vivo, spontaneously hypertensive rats. Particulars: for increase in DA/NE ratio / nepicastat compared with SKF-102698, catecholamine changes: 30 mg/kg; for maximal increase in DA/NE ratio: 100 mg/kg; for decrease in noradrenaline / increase in dopamine: 100 mg/kg po x3. The method, then:
Male SHRs (15-16 weeks old, Charles River, Wilmington, Mass., USA) were used in in vivo studies. On the day of the study, animals were weighed and randomly assigned to be dosed with either vehicle (control) or the appropriate dose of nepicastat (3, 10, 30 or 100 mg·kg^−1, po) or Compound B (30 mg·kg^−1, po) three consecutive times, twelve hours apart. At six hours after the third dose, the rats were anaesthetized with halothane, decapitated and tissues (cerebral cortex, mesenteric artery and left ventricle) were rapidly harvested, weighed, placed in iced perchloric acid (0.4 M), frozen in liquid nitrogen and stored at −70° C. until subsequent analysis. To quantify noradrenaline and dopamine concentrations, tissues were homogenized by brief sonication and centrifuged at 13,000 rpm for 30 minutes at 4° C. The supernatant, spiked with 3,4-dihydroxybenzylamine (internal standard), was assayed for noradrenaline and dopamine by HPLC using electrochemical detection.
Nepicastat was used in in vivo biochemical studies to study the effects in spontaneously hypertensive rats (SHRs) and normal beagle dogs. On the day of the study, the animals were weighed and randomly assigned to receive either placebo (vehicle) or the appropriate dose of nepicastat. Each rat was dosed orally three times, 12 h apart, beginning in the morning. At 6 h after the third dose, the rats were anesthetized with halothane, decapitated, and the tissues (cerebral cortex, mesenteric artery and left ventricle) were rapidly harvested, weighed, placed in iced 0.4 M perchloric acid, frozen in liquid nitrogen and stored at −70° C. until analysis. Tissue NE and DA concentrations were assayed by HPLC using electrochemical detection. Male beagle dogs (10-16 kg, Marshall Farms USA Inc, North Rose, N.Y.) were used in the study. On the day of the study, dogs were randomly assigned to receive either placebo (empty capsule) or the appropriate dose of nepicastat. Each dog was dosed twice a day for 4.5 days. 6 h after the first dose on day 5, the dogs were euthanized with pentobarbital and the tissues (cerebral cortex. renal artery, left ventricle) harvested, weighed, placed in iced 0.4 M perchloric acid, frozen in liquid nitrogen and stored at −70° C. until analysis. Tissue NE and DA concentrations were assayed by HPLC using electrochemical detection.
Fifteen to sixteen week old male spontaneously hypertensive rats (SHRs) (Charles River Labs) were allowed food and water ad libitum. Animals were weighed and randomly assigned to one of the following treatment groups: 1) distilled water vehicle (dH2O), or nepicastat at 3, 10, 30, and 100 mg/kg, 2) Compound B at 30 mg/kg in distilled water, or 3) PEG 400:dH2O vehicle or SKF-102698 at 30 mg/kg. Each rat was dosed orally (p.o., using a gavage needle) three times 12 hours apart, beginning in the morning. At six hours after the third dose rats were anesthetized with halothane, decapitated, and the cortex, mesenteric artery, and left ventricle were rapidly harvested, weighed, placed in iced 0.4 M perchioric acid, frozen in liquid nitrogen, and stored at −70° C. Tissue dopamine and norepinephrine concentrations were assayed by high performance liquid chromatography and electrochemical detection.
Four series of statistical analyses were performed. The first series compared the rats treated with various doses of nepicastat, and Compound B at 30 mg/kg to the vehicle control animals. A nonparametric one-way analysis of variance (ANOVA) with factor Dose and blocking factor Day was performed for each tissue and strain separately. […] Pairwise analysis between treated and controls at each dose were carried out using Dunnett's test to control the experiment-wise error rate. The second statistical test compared SKF-102698 to the PEG-dH2O vehicle treated group using a nonparametric t-test. The third statistical test compared Compound B to nepicastat at doses of 30 mg/kg using a nonparametric t-test.

Where [1] appears, read: cerebral cortex, 30 and 100 mg/kg.
Setting [2] is: left ventricle and mesenteric artery.
Setting [3] is: left ventricle, 3, 10, 30 and 100 mg/kg.

“Also recorded” adds a separate entry of the source. Some results are limits rather than exact numbers.

For `Fc1cc(F)cc(Cn2cc[nH]c2=S)c1` [SKF-102698, reference compound], the “increase in DA/NE ratio” value is listed as 2.7 fold (cerebral cortex), 3.5 fold (left ventricle) and 5.5 fold (mesenteric artery). Further, the dopamine vs vehicle result was “significantly greater (p<0.01) than vehicle” (cerebral cortex, 30 mg/kg x3); “significantly greater (p<0.01) than vehicle” (left ventricle, 30 mg/kg x3); “significantly greater than vehicle” (mesenteric artery, 30 mg/kg x3). Besides, the “dopamine/norepinephrine ratio vs vehicle” value reads like this: (cerebral cortex, 30 mg/kg x3) “significantly (p<0.01) greater than vehicle”; (left ventricle, 30 mg/kg x3) “significantly (p<0.05) greater than vehicle”; (mesenteric artery, 30 mg/kg x3) “significantly greater than vehicle”. Besides, the norepinephrine vs vehicle entry reads like this: (cerebral cortex, 30 mg/kg x3) “significantly lower than vehicle”; (left ventricle, 30 mg/kg x3) “not different from vehicle”; (mesenteric artery, 30 mg/kg x3) “significantly lower than vehicle”.

As to `Cl.NCc1c[nH]c(=S)n1[C@H]1CCc2c(F)cc(F)cc2C1` [nepicastat, (S)-5-Aminomethyl-1-(5,7-difluoro-1,2,3,4-tetrahydronaphth-2-yl)-2,3-dihydro-2-thioxo-1H-imidazole hydrochloride], for the setting “30 mg/kg po x3, mesenteric artery and/or left ventricle, hydrochloride”, the “nepicastat compared with the R-enantiomer (Compound B), catecholamine changes” value is “significantly greater changes in catecholamine content; also recorded: significantly more potent then the R enantiomer; also recorded: significantly more effective (p<0.01) than Compound B”. Besides, the “increase in DA/NE ratio” value by setting is: (cerebral cortex) 1.5 fold; (left ventricle) 7.5 fold; (mesenteric artery) 8.3 fold. In addition, where the note is “cerebral cortex, 30 mg/kg x3”, the “norepinephrine levels, nepicastat compared to Compound B” value was “significantly lower”. Also, the “nepicastat compared with SKF-102698, catecholamine changes” value (cerebral cortex, hydrochloride) is reported as “significantly less effects than SKF-102698; also recorded: greater for SKF-102698 than for nepicastat; also recorded: less effective in the cerebral cortex” and the “nepicastat compared with SKF-102698, catecholamine changes” value (left ventricle and/or mesenteric artery, hydrochloride) is “significantly more potent than the DBH inhibitor SKF-102698; also recorded: greater for nepicastat than for SKF-102698; also recorded: more effective than SKF-102698”. In addition, the “maximal increase in DA/NE ratio” value is, setting by setting: (cerebral cortex) 3.2 fold; (left ventricle) 11 fold; (mesenteric artery) 14 fold. Further, the decrease in noradrenaline runs as follows: (cerebral cortex) 42%; (left ventricle) 35%; (mesenteric artery) 47%. The increase in dopamine was 86% (cerebral cortex), 800% (left ventricle) and 820% (mesenteric artery). Further, the “dopamine concentration vs vehicle” value is, setting by setting: under setting [1], “significantly (p<0.05) greater”; under setting [3], “significantly (p<0.05) greater than vehicle”; (mesenteric artery, 3, 10, 30 and 100 mg/kg) “significantly (p<0.05) greater than vehicle”. Besides, the “dopamine/norepinephrine ratio vs vehicle” value is given as “significantly (p<0.05) greater” under setting [1]; “significantly (p<0.05) greater than vehicle” under setting [3]; “significantly (p<0.05) greater than vehicle” (mesenteric artery, all doses). Besides, the “norepinephrine concentration vs vehicle” value reads like this: under setting [1], “significantly (p<0.05) lower”; (left ventricle, 10, 30 and 100 mg/kg) “significantly (p<0.05) lower than vehicle”; (mesenteric artery, 10, 30 and 100 mg/kg) “not significantly less (p>0.05)”. Further, the “dose for significant decrease in norepinephrine” value under setting [2] is 10 mg/kg. For the same compound, the “dose for significant increase in dopamine” value under setting [2] came to 3.0 mg/kg. For the same compound, the “dose for significant increase in dopamine/norepinephrine ratio” value under setting [2] is listed as 3.0 mg/kg. Further, the “doses at which catecholamine changes attained significance (p<0.05)” value (mesenteric artery and left ventricle) is not below 3 mg/kg.
